Values quoted from earlier work in patent US20150272847A1, “Skin Engaging Shaving Aid Comprising A Thermally Resilient Sensate And A TRPA1 Receptor Inhibitor” (The Gillette Company, priority 2014, published 2015).

Conditions: compared to menthol at 2 ppm

CC(C)[C@@H]1CC[C@@H](C)C[C@H]1C(=O)Nc1ccc(CC#N)cc1 [N-[4-(cyanomethyl)phenyl]-(1R,2S,5R)-2-isopropyl-5-methylcyclohexanecarboxamide]
Cooling as compared to menthol: about 10 ×
